Data on 35 molecules can be found in paper PMC6753678, “Fueling Open Innovation for Malaria Transmission-Blocking Drugs: Hundreds of Molecules Targeting Early Parasite Mosquito Stages” (Frontiers in Microbiology, 2019).

The structures appear in SMILES notation.

Series [1] concerns HepG2 cells. Nature of the series: HepG2 cytotoxicity assay. To be noted: HepG2 cytotoxicity unified across screens; >25 set to 25.00. In short, it runs like this: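 Here viability after a 48 h compound incubation (37°C, humidified 5% CO2) is measured by fluorescence and expressed as percent inhibition, with doxorubicin at 50 μM and DMSO as the bounding controls.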
Series [2] relates to P. falciparum late stage (stages IV-V) gametocytes. Further details: method as in Almela et al 2016. The conditions noted are these: P. falciparum late stage gametocyte ATP assay, TCAMS screen; ref Almela et al 2016; read-out: Pf GCT ATP IC50; cited from earlier work.
The test system is the same in series [3]. Nature of the series: P. falciparum late stage gametocyte ATP depletion assay (Pf GC-ATP). To be noted: 1: YES; 0: NO; >10-fold selectivity over cytotoxicity.

As usually defined, the IC50 is the concentration that inhibits the measured activity by half. In the case of `Fc1ccc2[nH]c(-c3cccc(-c4cccc(CNCCN5CCNCC5)c4)c3)nc2c1.O=C(O)C(F)(F)F` [TCMDC-132860], the Unified cytotox in series [1] stood at 19.63 µM. Further, in series [2], the IC50 was 0.74 µM. For the same molecule, the “Is compound selective in assay? Pf GC-ATP active?” value (“Is compound selective” for short) in series [3] is reported as 1 (1: YES).
In the case of `Fc1ccc2[nH]c(-c3cccc(-c4ccc(CNCCN5CCNCC5)cc4)c3)nc2c1.O=C(O)C(F)(F)F` [TCMDC-132863], the Unified cytotox in series [1] was determined as 24.16 µM. Moreover, the half-maximal inhibitory concentration (IC50) in series [2] is 1.45 µM. Further, in series [3], the “Is compound selective” value was 1 (1: YES).
Molecule `Cc1cccc2nc(-c3ccc(-c4cccc(CNCCN5CCNCC5)c4)cc3)[nH]c12` [TCMDC-132867] showed a Unified cytotox in series [1] of 13.40 µM. Also, in series [2], the IC50 is 0.84 µM. Moreover, the “Is compound selective” value in series [3] is 1 (1: YES).
For the molecule `Cc1cccc2nc(-c3cccc(-c4cccc(CNCCN5CCNCC5)c4)c3)[nH]c12.O=C(O)C(F)(F)F` [TCMDC-132873], in series [1], the Unified cytotox is reported as 7.76 µM. The IC50 in series [2] is 0.5 µM. The “Is compound selective” value in series [3] is 1 (1: YES).
Consider `CN1CCN(c2nsc3ccc(-c4ccc(NC(=O)Nc5cc(C(F)(F)F)ccc5F)cc4)cc23)CC1.O=C(O)C(F)(F)F` [TCMDC-133435], for which the Unified cytotox in series [1] turned out to be 6.40 µM. Besides, in series [2], the IC50 was 7.52 µM. Moreover, the “Is compound selective” value in series [3] is given as 0 (0: NO).
Take `O=C(Nc1ccc(Cl)c(Cl)c1)Nc1ccccc1N1CCNCC1.O=C(O)C(F)(F)F` [TCMDC-133727]: the Unified cytotox in series [1] is listed as 11.20 µM. Moreover, the IC50 in series [2] was 7.42 µM. For the same molecule, the “Is compound selective” value in series [3] was 0 (0: NO).
`NC1CCN(Cc2ccc(-c3ccc(-c4nc5cc(F)ccc5[nH]4)cc3)cc2)C1.O=C(O)C(F)(F)F` (stereo not drawn) [TCMDC-133872]: the Unified cytotox in series [1] came out at 7.25 µM. Also, the IC50 in series [2] was 0.83 µM. In addition, the “Is compound selective” value in series [3] is listed as 0 (0: NO).
`O=C(O)C(F)(F)F.c1cc(CN2CCC(CCN3CCCCC3)CC2)cc(-c2cccc(-c3nc4ccccc4[nH]3)c2)c1` [TCMDC-133920] registered a Unified cytotox in series [1] of 13.10 µM. For the same molecule, the IC50 in series [2] was 0.29 µM. The “Is compound selective” value in series [3] is 1 (1: YES).
`Cc1cccc2nc(-c3ccc(-c4cccc(CN5CCC(CCN6CCCCC6)CC5)c4)s3)[nH]c12.O=C(O)C(F)(F)F` [TCMDC-133923] gave a Unified cytotox in series [1] of 3.87 µM. In series [2], the IC50 was 0.46 µM. The “Is compound selective” value in series [3] is given as 0 (0: NO).
`Cc1cccc2nc(-c3ccc(-c4ccc(CN5CCC(CCN6CCCCC6)CC5)cc4)cc3)[nH]c12.O=C(O)C(F)(F)F` [TCMDC-133929] displayed a Unified cytotox in series [1] of 3.70 µM. Also, the IC50 in series [2] was 0.27 µM. For the same molecule, the “Is compound selective” value in series [3] is reported as 1 (1: YES).
In turn, `Fc1ccc2[nH]c(-c3ccc(-c4ccc(CN5CCC(CCN6CCCCC6)CC5)cc4)s3)nc2c1.O=C(O)C(F)(F)F` [TCMDC-133932] returned a Unified cytotox in series [1] of 3.79 µM. The IC50 in series [2] is 0.14 µM. The “Is compound selective” value in series [3] was 1 (1: YES).
`COc1ccc(-c2cnn3ccc(Nc4cc(OC)c(OC)c(OC)c4)nc23)cc1OC` [TCMDC-134383] gave a Unified cytotox in series [1] of 12.90 µM. The 50% inhibitory concentration (IC50) in series [2] is 1.62 µM. Also, the “Is compound selective” value in series [3] is reported as 0 (0: NO).
Molecule `CCc1ccc(CN2CCC(CNC(=O)c3cc(-c4cccc(F)c4)cs3)C2)cc1.O=C(O)C(F)(F)F` (stereo not drawn) [TCMDC-134432] displayed a Unified cytotox in series [1] of 7.22 µM. Moreover, the IC50 in series [2] is 1.26 µM. Moreover, in series [3], the “Is compound selective” value is 0 (0: NO).
`COc1ccccc1CCNc1nc(C)cc(N[C@@H](Cc2ccccc2)C(=O)NCc2cccc(F)c2)n1.O=C(O)C(F)(F)F` [TCMDC-134893] showed a Unified cytotox in series [1] of 6.30 µM. In addition, the IC50 in series [2] is 5.3 µM. In addition, the “Is compound selective” value in series [3] was 0 (0: NO).
With `CC(C)(C)OC(=O)NCc1ccc(Nc2nnc(-c3ccc(OCC(=O)NCc4ccc(C(C)(C)C)cc4)c([N+](=O)[O-])c3)o2)cc1` [TCMDC-134991], the Unified cytotox in series [1] is 3.15 µM. Also, the concentration for half-maximal inhibition (IC50) in series [2] was 0.7 µM. The “Is compound selective” value in series [3] is 0 (0: NO).
In turn, `CN1CCN(CC2(Nc3nccc(NCCc4cn(C)c5ccccc45)n3)CCCCC2)CC1` [TCMDC-135122] showed a Unified cytotox in series [1] of 6.94 µM. Moreover, the IC50 in series [2] is 0.7 µM. The “Is compound selective” value in series [3] is reported as 0 (0: NO).
For the molecule `COc1cc(NC(=O)c2sc(-c3ccc(Cl)cc3)cc2NC(=O)c2ccncc2)ccc1OCCN1CCCC1` [TCMDC-135398], the Unified cytotox in series [1] worked out at 3.23 µM. In addition, in series [2], the IC50 is 0.15 µM. The “Is compound selective” value in series [3] is 1 (1: YES).
Take `CCN(CC)CCCNc1nccc(N2CCc3ncnc(Nc4ccc(OCc5cccc(F)c5)c(Cl)c4)c3C2)n1` [TCMDC-135406]: the Unified cytotox in series [1] is recorded as 5.58 µM. The IC50 in series [2] was 0.72 µM. Further, the “Is compound selective” value in series [3] is on record as 0 (0: NO).
As for `COc1cc2ccccc2cc1OCCCN1CCN(CC(c2ccc(F)cc2)N2CCN(C(C)C)CC2)CC1.Cl` (stereo not drawn) [TCMDC-135496], in series [1], the Unified cytotox came out at 3.72 µM. Also, the IC50 in series [2] was 1.25 µM. Further, the “Is compound selective” value in series [3] is 0 (0: NO).
`COC(=O)c1sc(-c2ccc(Cl)cc2)cc1N(CCCN1CCC(N2CCCCC2)CC1)S(=O)(=O)c1ccc(C)cc1` [TCMDC-135561]: the Unified cytotox in series [1] turned out to be 4.37 µM. The IC50 in series [2] is 3.36 µM. In series [3], the “Is compound selective” value was 0 (0: NO).
Turning to `CC(C)(C)N1CCC(N(Cc2ccc(-c3ccc(C(F)(F)F)cc3)cc2)C(=O)Cn2c(CCc3cccc(F)c3F)cc(=O)c3cccnc32)CC1.O=C(O)C(O)C(O)C(=O)O` [TCMDC-136011], the Unified cytotox in series [1] amounted to 3.10 µM. In addition, in series [2], the IC50 was 2.39 µM. The “Is compound selective” value in series [3] is reported as 0 (0: NO).
For `CCn1c(-c2nonc2N)nc2c(-c3cccc(NC(=O)Nc4ccccc4OC)c3)ncc(OCCCN)c21.O=C(O)C(F)(F)F` [TCMDC-136190], the Unified cytotox in series [1] is 5.90 µM. Further, the IC50 in series [2] was 0.44 µM. In addition, the “Is compound selective” value in series [3] is 1 (1: YES).
As to `CCn1c(-c2nonc2N)nc2c(-c3cccc(NC(=O)Nc4cccc(C#N)c4)c3)ncc(OCCCN)c21.O=C(O)C(F)(F)F` [TCMDC-136195], the Unified cytotox in series [1] was determined as 24.70 µM. For the same molecule, the IC50 in series [2] is 3.51 µM. In addition, the “Is compound selective” value in series [3] is on record as 0 (0: NO).
Take `Cl.NCCCOc1cnc(-c2ccccc2)c2nc(-c3nonc3N)n(CCc3ccccc3)c12` [TCMDC-136216]: in series [1], the Unified cytotox was found to be 5.61 µM. Further, the half-inhibitory concentration (IC50) in series [2] is 1.4 µM. The “Is compound selective” value in series [3] is 0 (0: NO).
Regarding `O=C(Nc1ccc(F)c(C(F)(F)F)c1)NC1CCN(CCCCCNC(=O)C2CC2c2ccc(Cl)c(Cl)c2)CC1` (stereo not drawn) [TCMDC-136259], the Unified cytotox in series [1] is 6.40 µM. The IC50 in series [2] is 4.35 µM. Besides, in series [3], the “Is compound selective” value was 0 (0: NO).
For the molecule `C[C@H]1CN(Cc2cccc(-c3cc(CNC(=O)c4cccc(CC5CCN(C)CC5)c4)ccc3F)c2)CCN1C` [TCMDC-136349], the Unified cytotox in series [1] was found to be 6.97 µM. Besides, the IC50 in series [2] was 0.85 µM. Further, the “Is compound selective” value in series [3] is given as 0 (0: NO).
In series [1], `COc1cc(Br)c(S(=O)(=O)n2cc(CN3CCC(N)CC3)c3cc(Cl)ccc32)cc1OC.O=C(O)C(F)(F)F` [TCMDC-136384] displayed a Unified cytotox of 6.70 µM. Also, in series [2], the IC50 was 2.42 µM. Besides, the “Is compound selective” value in series [3] is 0 (0: NO).
As to `CN(C)Cc1ccc(-c2cccc(Nc3nccc(NCC(O)c4ccccc4)n3)c2)cc1` (stereo not drawn) [TCMDC-136467], the Unified cytotox in series [1] came to 5.87 µM. Besides, the half-maximal inhibitory concentration (IC50) in series [2] was 0.9 µM. For the same molecule, the “Is compound selective” value in series [3] is 0 (0: NO).
In series [1], `Fc1ccc(N(c2nc(-c3cc(F)cc(C(F)(F)F)c3)cs2)C2CCNCC2)cc1.O=C(O)C(F)(F)F` [TCMDC-136656] came in with a Unified cytotox of 6.60 µM. The half-maximal inhibitory concentration (IC50) in series [2] is 3.28 µM. For the same molecule, the “Is compound selective” value in series [3] is listed as 0 (0: NO).
Molecule `CN(C)CCNC(=O)c1ccc(-c2cnc3ccc(NCc4ccc(Cl)c(Cl)c4)nn23)cc1` [TCMDC-136678] yielded a Unified cytotox in series [1] of 16.66 µM. Moreover, the IC50 in series [2] was 0.33 µM. For the same molecule, in series [3], the “Is compound selective” value is on record as 1 (1: YES).
In turn, `CCNCc1cccc(-c2ccc3ccnc(N)c3c2)c1` [TCMDC-136869] registered a Unified cytotox in series [1] of 12.50 µM. For the same molecule, the half-inhibitory concentration (IC50) in series [2] is 1.66 µM. Moreover, the “Is compound selective” value in series [3] is recorded as 0 (0: NO).
On to `FC(F)c1nc2ccccc2n1-c1nc(N2CCOCC2)nc(N2CCOCC2)n1` [TCMDC-137004], for which the Unified cytotox in series [1] came to 1.58 µM. Also, the IC50 in series [2] was 5.44 µM. In series [3], the “Is compound selective” value is 0 (0: NO).
With `CS(=O)(=O)O.FC(F)(F)COc1c(CCNCCCCNCCc2ccc3ccccc3c2OCC(F)(F)F)ccc2ccccc12` [TCMDC-137169], in series [1], the Unified cytotox is on record as 2.80 µM. In addition, in series [2], the IC50 was 0.1 µM. Moreover, the “Is compound selective” value in series [3] is listed as 1 (1: YES).
As for `CCN(CC)CCOc1ccc(C(O)(C#CC(O)(c2ccccc2)c2ccc(OCCN(CC)CC)cc2)c2ccccc2)cc1` (stereo not drawn) [TCMDC-137197], the Unified cytotox in series [1] was 3.67 µM. Further, the IC50 in series [2] is 0.69 µM. Besides, the “Is compound selective” value in series [3] is 0 (0: NO).
The molecule `CCN(CC)CCOc1ccc(C(O)(C#CC(O)(c2ccc(C)cc2)c2ccc(OCCN(CC)CC)cc2)c2ccc(C)cc2)cc1` (stereo not drawn) [TCMDC-137198] had a Unified cytotox in series [1] of 1.62 µM. Besides, in series [2], the IC50 was 0.14 µM. Moreover, the “Is compound selective” value in series [3] is listed as 1 (1: YES).
